# Measurements: patent US11254702B2, “Thionyl tetrafluoride modified compounds and uses” (The Scripps Research Institute, priority 2016, dated 2022)
# What was measured:
# zebrafish embryos = assay: Zebrafish embryo phenotype after incubation with compound; format: in vivo; conditions: zebrafish embryos treated at concentrations of 10 and 20 μM; micrographic images (FIG. 14 A, B)
# Experimental: FIG. 14 provides micrographic images of zebrafish embryos: (A) and (B) Phenotypes generated by incubating zebrafish embryos with Compound 2-23 at various concentration; (C) Lysates from Compound 2-23 treated or untreated embryos at 24 hpf were reacted with biotin-azide, pull-down with streptavidin beads and analyzed using SDS-PAGE.
# FIG. 14 provides micrographic images of zebrafish embryos. Panels (A) and (B) illustrate phenotypes generated by incubating zebrafish embryos with Compound 2-23 at various concentrations. […] Panel (C) provides SDS-PAGE images of lysates from Compound 2-23 treated or untreated embryos at 24 hours post fertilization (hpf). The lysates were treated with biotin-azide and a copper(I) catalyst to react with the terminal alkyne via a copper-catalyzed azide-alkyne Click reaction and thereby attach biotin to any Compound 2-23 that may have been bound to a protein in the lysate. The biotinated lysate was then pulled-down with streptavidin beads and analyzed using SDS-PAGE.
SMILES,melting point [°C],phenotypical changes in the embryos (zebrafish embryos)
C#CCOC[C@H]1O[C@@H](n2cc(C)c(=O)[nH]c2=O)C[C@@H]1N=S(=O)(F)N1CCC1 (some centres unmarked),105 to 106,
C#Cc1ccc(N=S(=O)(F)N2CCC(=O)CC2)cc1 (centres unmarked),70,
C#CCOC[C@H]1O[C@@H](n2cc(C)c(=O)[nH]c2=O)C[C@@H]1N=S(=O)(F)Oc1ccc2c(c1)CC[C@H]1C3CCC(=O)[C@@]3(C)CC[C@H]21 (some centres unmarked),94 to 95,
"C#CCOC[C@H]1O[C@@H](n2cc(C)c(=O)[nH]c2=O)C[C@H]1N=S(=O)(F)F [Compound 2-23, ((2S,3S,5R)-5-(5-Methyl-2,4-dioxo-3,4-dihydropyrimidin-1(2H)-yl)-2-((prop-2-yn-1-yloxy)methyl)tetrahydrofuran-3-yl)sulfurimidoyl Difluoride]",,significant phenotypical changes
"O=C1[C@@H]([C@H](c2ccccc2)N2CCN(c3ccc(F)cc3)CC2)N=S(=O)(F)N1C1CCCCC1 (stereo partly drawn) [Compound 2-25, (4R)-2-Cyclohexyl-1-fluoro-4-((S)-(4-(4-fluorophenyl)piperazin-1-yl)(phenyl)methyl)-2,4-dihydro-3H-1λ^6,2,5-thiadiazol-3-one 1-oxide]",139 to 140,
"C#Cc1ccc(NS(=O)(=O)NCC(=O)O)cc1 [Compound 4-1, (N-(4-ethynylphenyl)sulfamoyl)glycine]",113 to 115,
"C#Cc1ccc(NS(=O)(=O)N[C@@H](C)C(=O)O)cc1 [Compound 4-2, (N-(4-Ethynylphenyl)sulfamoyl)-L-alanine]",163 to 165,
"C#Cc1ccc(N=S(=O)(F)Oc2ccc(-c3ccccc3)cc2)cc1 (centres unmarked) [Compound 6-1, [1,1′-biphenyl]-4-yl (4-ethynylphenyl)sulfurofluoridoimidate]",94 to 95,
"C#Cc1ccc(N=S(=O)(Oc2ccc(-c3ccccc3)cc2)Oc2ccc(-c3ccccc3)cc2)cc1 [Compound 7-2, Di([1,1′-biphenyl]-4-yl) (4-ethynylphenyl)sulfurimidate]",129,
"C#Cc1ccc(N=S2(=O)Oc3ccccc3O2)cc1 [Compound 9-1, 2-((4-Ethynylphenyl)imino)-2λ^4-benzo[d][1,3,2]dioxathiole 2-oxide]",97 to 98,
"C#Cc1ccc(N=S2(=O)Oc3c(C)ccc(C)c3O2)cc1 [Compound 9-2, 2-((4-Ethynylphenyl)imino)-4,7-dimethyl-2λ^4-benzo[d][1,3,2]dioxathiole 2-oxide]",101,
"C#Cc1ccc(N=S2(=O)Oc3ccccc3-c3ccccc3O2)cc1 [Compound 9-4, 6-((4-Ethynylphenyl)imino)-6λ^4-dibenzo[d,f][1,3,2]dioxathiepine 6-oxide]",138 to 139,
"C#Cc1ccc(N=S(=O)(Oc2ccccc2O)N2CCCCC2)cc1 (centres unmarked) [Compound 10-1, 2-Hydroxyphenyl N-(4-ethynylphenyl)piperidine-1-sulfonimidate]",93,
"C#Cc1ccc(N=S(=O)(Oc2ccccc2O)N2CCN(C(=O)OC(C)(C)C)CC2)cc1 (stereo not drawn) [Compound 10-2, tert-Butyl 4-(N-(4-ethynylphenyl)-S-(2-hydroxyphenoxy)sulfonimidoyl)piperazine-1-carboxylate]",139 to 141,
